From US20200093123A1, “INSECTICIDAL EMULSION” (EVOLVA SA, priority 2016, published 2020)
Read-outs that look alike come from different tables or passages of the source.

Columns and labels:
[1] = test system: Aedes aegypti adult female mosquitoes; assay: Arm over cage contact repellency, geraniol/co-solvent formulations (Example 18); assay type: in vivo; settings: about 0.3 mL on collagen membrane aged one hour; 5 minute count; average of 4 replicates
Method: Twenty five Aedes aegypti adult female mosquitoes were introduced into a 1 ft×1 ft×1 ft cage. The mosquitoes were starved for at least 2 hours before repellency testing. The test formulation or control substance (see “Treatments”) was applied at a rate of approximately 0.3 mL onto a dampened collagen membrane (2.5 inches by 6 inches) to mimic the effect of skin, and the membrane was allowed to age for one hour while resting on a damp cloth. An untreated, dampened collagen membrane was placed on a mesh opening at the top of the test cage, and a researcher's arm was suspended -1/4 inch above the membrane to act as an attractant. The numbers of landings and probings of the untreated membrane were counted during a 5 minute period, and these counts were used as the baseline level of activity for that specific replicate of mosquitoes. Immediately after the baseline count, an aged, treated membrane was placed on top of the cage, and the numbers of landings and probings of the treated membrane were counted during a 5 minute period for the same replicate of mosquitoes. […] Repellency was calculated as one minus the ratio of the average number of probings or landings using the treated membrane divided by the average number of probings or landings using the untreated membrane from the same cages over the same four replicates of mosquitoes. […]

[2] = partially soluble in water; cited from earlier work
[3] = rats; cited from earlier work
[4] = test system: Aedes aegypti larvae; assay: Duration of larvicidal protection in treated water (Example 7); assay type: in vivo; settings: 0.03% nootkatone/1% ethanol in water; larvae added 3-7 days after the water was treated; within 24 hours
[5] = test system: mosquito pupae; assay: Mosquito pupae killing (Example 8, previous testing); assay type: in vivo, Aedes aegypti or Anopheles quadrimaculatus; settings: 0.03% nootkatone/1% ethanol; within 24 hours
Method: Pupae preparation. Eggs of Aedes aegypti or Anopheles quadrimaculatus were purchased from a commercial supplier. Eggs were hatched in sterile MilliQ water and fed with finely ground Tetramin® fish food until they developed into pupae.
Pupae experiments. Clean, glass 600 mL beakers were washed and thoroughly rinsed prior to use as test containers. On testing days, pupae were removed from dishes used to grow larvae. Replicates of 10 pupae each were randomly assigned to glass beakers in a volume of 100 mL of sterile MilliQ water, and a treatment (see “Treatments” below) is added. A minimum of three control replicates and 4 treated replicates were tested on more than one day. The beakers were then covered lightly with Kimwipes®, secured by rubber bands to prevent escape of adults. The beakers were observed after 24 hours, and the numbers of live pupae, dead pupae, live adults, and dead adults were recorded.
Treatments. An aliquot of 0.5-1 mL of formulations such as those used in Example 1 was added to each test beaker. Control beakers consist of 100 mL of sterile MilliQ water.

[6] = test system: mosquito pupae; assay: Prevention of adult emergence from pupae (Example 9, previous testing); assay type: in vivo, Aedes aegypti or Anopheles quadrimaculatus; settings: 0.015% nootkatone/0.5% ethanol (v/v) in water for 48 hours
Source text: Pupae preparation. Eggs of Aedes aegypti or Anopheles quadrimaculatus were purchased from a commercial supplier. They were hatched in sterile MilliQ water and fed with finely ground TetraMin® fish food (fish meal, dried yeast, ground brown rice, shrimp meal, wheat gluten, feeding oat meal, fish oil, potato protein, dehulled soybean meal, soybean oil, algae meal, sorbitol, lecithin, monobasic calcium phosphate, ascorbic acid, yeast extract, inositol, niacin, L-ascorbyl-2-polyphosphate, riboflavin-5-phosphate, α-tocopherol-acetate, d-calcium pantothenate, thiamine mononitrate, pyridoxine hydrochloride, vitamin A palmitate, menadione sodium bisulfite complex, biotin, vitamin B12 supplement, cholcalciferol, manganese sulfate monohydrate, zinc sulfate monohydrate, ferrous sulfate monohydrate, cobalt acetate) until they developed into pupae.
Pupae experiments. Clean, glass 600 mL beakers were washed and thoroughly rinsed prior to use as test containers. On each of four testing days, pupae were removed from dishes used to grow larvae. Replicates of 10 pupae each were randomly assigned to glass beakers in a volume of 100 mL of sterile MilliQ water, and a treatment (see “Treatments” below) is added. The beakers are then covered lightly with Kimwipes® and secured by rubber bands to prevent escape of adults. […]
Treatments. […]

[7] = test system: Aedes aegypti New Orleans strain adults; assay type: in vivo
Method: (§1) Method: Nootkatone was solubilized in acetone to a concentration of 1%, 0.607%, 0.368%, 0.224%, 0.136%, 0.082%, and 0.05%. 0.5 mL of solution was dispensed into a 5 cm diameter glass Petri dish for each replicate to be tested, using a fume hood and appropriate personal protective equipment. Liquid was dispensed to ensure that the entire base of the dish was covered with solution. Dishes were transferred to an orbital shaker set at a speed of 200 revolutions per minute. The dishes were shaken for 15 minutes to ensure even distribution on the surface of the plate. Control dishes were prepared in the same way using 0.5 mL of acetone without nootkatone. Dishes were allowed to dry for 4 hours before use. Dishes were stored at 4° C. until use. Groups of 10 adult female mosquitoes, 2-5 days old, were gently aspirated into a transfer pot system, and were then gently tapped out onto the surface of the treated or control Petri dishes. Although attempts are made to have groups of exactly 10 mosquitoes, group size could vary. Groups of more than 15 mosquitoes were excluded from testing, due to overcrowding. The opening to the dishes through which the mosquitoes were introduced was covered with parafilm to prevent escape. After 30 minutes of exposure to the Petri dishes, mosquitoes were transferred to paper cups for additional observation. They were supplied with 10% sucrose solution ad libitum. Three replicates, or 30 total adult female mosquitoes were tested for each concentration of nootkatone in acetone, and for the acetone-only controls. The mosquitoes tested were either the Aedes aegypti New Orleans strain, or Anopheles gambiae Kisumu strain.
(§2) Observation Methods: • a. […] Definitions of “Alive”, “Knockdown (KD)”, and “Dead” are as defined above.

[8] = test system: Anopheles gambiae Kisumu strain adults; assay type: in vivo
Method: as §1, §2

[9] = test system: yellow fever mosquitoes (Aedes aegypti) adults; assay: whole plant or invertebrate; assay type: in vivo; settings: 1% w/v nootkatone in ethanol dried on filter paper, mortality reached at 24 hours
Method: (§3) Method: Nootkatone was solubilized in ethanol to a concentration of 1% w/v. The nootkatone solution, or solvent (ethanol) alone as a negative control, was applied directly to filter paper using a micropipette, in an amount of 1 mL for a 9 cm filter paper disc. Filter papers were allowed to dry completely before being cut to the appropriate size prior to the start of the test. Treated and untreated filter papers were cut so that they covered the bottom of a suitable container for each test species (see Table No. 4, below). At each observation period, arthropods were classified as alive, knocked down (KD) or dead.
as §2

[10] = test system: biting midges; assay: Nootkatone residue on filter paper (Example 13); assay type: in vivo, biting midge; settings: 1% w/v nootkatone in ethanol dried on filter paper; mortality reached at 24 hours
Method: as §3, §2

[11] = test system: fire ants; assay: Nootkatone residue on filter paper (Example 13); assay type: in vivo, fire ant
Method: as §3, §2

[12] = test system: Asian tiger mosquitoes (Aedes albopictus); assay: Nootkatone residue on filter paper (Example 13); assay type: in vivo; settings: 24 h
Method: as §3, §2

[13] = test system: common malaria mosquitoes (Anopheles quadrimaculatus); assay: Nootkatone residue on filter paper (Example 13); assay type: in vivo; settings: 24 h
Method: as §3, §2

[14] = test system: southern house mosquitoes (Culex quinquefasciatus); assay: Nootkatone residue on filter paper (Example 13); assay type: in vivo; settings: 24 h
Method: as §3, §2

[15] = test system: deer ticks; assay: Nootkatone residue on filter paper (Example 13); assay type: in vivo, deer tick; settings: 1% w/v nootkatone in ethanol dried on filter paper; at 72 hours
Method: as §3, §2

[16] = test system: aphids; assay: Nootkatone residue on filter paper (Example 13); assay type: in vivo, aphid; settings: 1% w/v nootkatone in ethanol dried on filter paper; mortality reached at 24 hours
Method: as §3, §2

[17] = test system: termites; assay: Nootkatone residue on filter paper (Example 13); assay type: in vivo, termite; settings: 1% w/v nootkatone in ethanol dried on filter paper; at 72 hours
Method: as §3, §2

In the case of `CCN(CC)C(=O)c1cccc(C)c1` [20% DEET in ethanol, N,N-Diethyl-meta-toluamide], the repellency against landings [1] is reported as 98% and the “repellency against probings (bites)” value [1] is reported as 100%.
For `OCc1ccccc1` [benzyl alcohol], the solubility in water [2] is listed as 4 g/100 ml and the LD50 [3] is listed as 1200 mg/kg.
With `C=C(C)[C@@H]1CCC2=CC(=O)C[C@@H](C)[C@]2(C)C1` [nootkatone] the larvae killed [4] was 100%, the “pupae died, average” value [5] was 94% and the “pupae died, one experiment” value [5] was 93%. For the same molecule, the “pupae died, second day of testing” value [5] was 95%, the “surviving adults eclosed from pupae” value [6] was “no surviving adults” and the adults knocked down ([7]; residue of 0.5 mL 0.136% nootkatone in acetone on 5 cm glass dish, within 30 minutes) was 47%. For the same molecule, the mortality ([7]; residue of 1% nootkatone in acetone, 30 minutes exposure, 24 hours after treatment) was 89%, the “nootkatone concentration required to obtain significant mortality” value ([7]; residue on glass dish, 30 minutes exposure, 24 hours after treatment) was 0.224% and the adults killed ([8]; residue of 0.082% nootkatone, 24 hours after treatment) was 50%. It also gave an adults knocked down ([8]; residue of 0.5 mL 0.082% nootkatone in acetone on 5 cm glass dish, within 30 minutes) of 41%, a mortality ([8]; residue of 0.607% nootkatone, 24 hours after treatment) of 100% and a mortality ([8]; residue of 1% nootkatone, 24 hours after treatment) of 100%. For the same molecule, the mortality at 1 % strength [9] was 100%, the Mortality % [10] was 100% and the killed ([11]; 1% nootkatone dried on filter paper, within 24 hours) was 100%. It also gave a Mortality % ([11]; 1% w/v nootkatone in ethanol dried on filter paper, at 72 hours (table, no asterisk)) of 100%, a mortality at 1 % strength [12] of 98% and a mortality at 1 % strength [13] of 98%. It also gave a mortality at 1 % strength [14] of 98%, a Mortality % [15] of 98% and a Mortality % [16] of 94%. For the same molecule, the Mortality % [17] was 90%.
